Results on two compounds are retold here after publication PMC7785372, “An UPLC-MS/MS Method for Determination of Osimertinib in Rat Plasma: Application to Investigating the Effect of Ginsenoside Rg3 on the Pharmacokinetics of Osimertinib” (International Journal of Analytical Chemistry, 2020).

On the set-up of data set [1]: method as in PMID 31371986. The conditions noted are these: rats; cited from earlier work.
Data set [2] in a line: Pharmacokinetic study of osimertinib in rats after oral administration, with or without ginsenoside Rg3 pretreatment. The data set is classed as in vivo, Male Sprague-Dawley rats. How it is done:
The rats were randomly divided into two groups (six rats for each group). Osimertinib was dissolved and suspended by 1% carboxymethylcellulose sodium solution. The Rg3 powder in Shenyi capsule was dissolved in saline. In the first period, ginsenoside Rg3 (5 mg/kg) was orally administered to the rats in group I for seven days, and the rats in the other group were orally treated with normal saline for seven days. In the second period, the rats were fasted overnight with free access to water before the experiment. After overnight fasting, ginsenoside Rg3 (5 mg/kg) plus osimertinib (10 mg/kg) was orally administered to the rats in group I, and the rats received oral ginsenoside Rg3 30 min prior to osimertinib at the eighth day. Rats in group II were only orally treated with osimertinib (10 mg/kg) at the eighth day. Blood samples (each 100 μL) were collected via the oculi chorioideae vein at 0.5, 1, 2, 3, 4, 5, 6, 7, 8, 10, 12, 15, and 24 h after treatment in heparinized tubes. The blood samples were immediately centrifuged at 3000 rpm for 10 min. The plasma was separated from blood samples and transferred to clean tubes and immediately stored at −80°C until further analysis. The plasma concentrations of osimertinib were determined according to the aforementioned developed UPLC-MS/MS method.
The pharmacokinetic parameters, including the maximal plasma concentration (Cmax), area under the plasma concentration-time curve (AUC), time for the maximal plasma concentration (Tmax), and mean residence time (MRT), were calculated through noncompartmental analysis by Phoenix WinNonlin (Pharsight Inc., USA, version 1.1) software.

The subject of the next data set is P-gp. Also noted: method as in PMID 31371986. The conditions noted are these: in vitro; cited from earlier work.
On the set-up of data set [3]: method as in PMID 29381826. The note with it: patients with advanced NSCLC, cited from earlier work.
Data set [4] can be described thus: Stability of osimertinib in rat plasma under various storage conditions (QC samples, UPLC-MS/MS). The data set is classed as physicochemical. The conditions noted are these: for Autosampler stability, RE / Autosampler stability, measured concentration Mean ± SD: processed rat plasma sample, 4°C for 24 h; for Autosampler stability, RE / Autosampler stability, measured concentration Mean ± SD / Short-term stability, RE / Short-term stability, measured concentration Mean ± SD / Freeze-thawing stability, RE / Freeze-thawing stability, measured concentration Mean ± SD / Long-term stability, RE / Long-term stability, measured concentration Mean ± SD: n = 6; for Short-term stability, RE / Short-term stability, measured concentration Mean ± SD: room temperature for 6 h; for Freeze-thawing stability, RE / Freeze-thawing stability, measured concentration Mean ± SD: −80°C for 3 cycles. How it is done: (1) Short-Term Stability. QC samples (low, medium, and high levels) were assessed by analyzing QC samples kept at room temperature for six hours.
(2) Autosampler Stability. QC samples (low, medium, and high levels) were evaluated after the processed QC samples were placed in an autosampler (4°C) for 24 hours.
(3) Freeze-Thaw Stability. QC samples (low, medium, and high levels) were investigated after storage at room temperature for 8 h, followed by three freeze-thaw cycles (thawing at room temperature during 2 h and freezing again at −80°C for at least 12 h).
(4) Long-Term Stability. QC samples (low, medium, and high levels) were determined by analyzing after storage at −80°C for 28 days.

The next data set concerns cytochrome P450 (CYP3A). Also noted: method as in PMID 31371986. The conditions noted are these: preclinical studies; cited from earlier work.
For a further data set, the system named is BCRP. Also noted: method as in PMID 31371986. The note with it: in vitro; cited from earlier work.
[5] abbreviates: male, Sprague-Dawley, rat, in vivo, po, 10 mg/kg.
The mark [6] stands for this setting: rat plasma, spiked 3 ng/mL, −80°C for 28 days.
[7] abbreviates: rat plasma, spiked 30 ng/mL, −80°C for 28 days.
Setting [8] is: rat plasma, spiked 350 ng/mL, −80°C for 28 days.

Read-outs that look alike come from different tables or passages of the source.

In general, MRT refers to a mean duration of stay, worked out from the concentration-time curve. Usually Tmax stands for the time at which the peak concentration occurs. As usually defined, the CL/F is clearance divided by bioavailability, as obtained after extravascular dosing. The half-life is the time needed for the level to fall by half in the phase considered. Broadly, the AUC(0-inf) is the area under the concentration-time curve extrapolated to infinity. In general, Cmax refers to the peak of the concentration-time curve. A word on the MRT last: it is a mean duration of stay, worked out from the concentration-time curve. One may read the Vd/F as the volume of distribution divided by bioavailability. Consider `C=CC(=O)Nc1cc(Nc2nccc(-c3cn(C)c4ccccc34)n2)c(OC)cc1N(C)CCN(C)C` [Osimertinib], for which, in data set [1], the MRT is listed as 14.51 h, the time to peak (Tmax) entry is listed as “about 4.48 h” and the t1/2 was 14.96 h. In addition, in data set [2] (setting [5]), the AUC0-t worked out at 2.82 ± 1.20 µg·h/mL, the CL/F is on record as 19.8 ± 8.1 L/h/kg, the Vz/F is given as 130 ± 58 L/kg and the half-life is 268 ± 56.4 min. Also, in data set [2] (male, Sprague-Dawley, rat, in vivo, po, 10 mg/kg, AUC0-t), the AUC0-t turned out to be 2.82 ± 1.21 µg·h/mL. Also, the AUC(0-inf) in data set [2] (male, Sprague-Dawley, rat, in vivo, po, 10 mg/kg, AUC0-∞) is 2900 ± 1210 ng·h/mL. Moreover, the Cmax in data set [2] (male, Sprague-Dawley, rat, in vivo, po, 10 mg/kg, C max) came to 317 ± 138 ng/mL. Also, the CL/F in data set [2] (male, Sprague-Dawley, rat, in vivo, po, 10 mg/kg, CL/F) is 19.8 L/h/kg. The mean residence time MRT last in data set [2] (male, Sprague-Dawley, rat, in vivo, po, 10 mg/kg, MRT0-t) was 6.88 ± 0.62 h. Besides, the time of peak concentration (Tmax) in data set [2] (male, Sprague-Dawley, rat, in vivo, po, 10 mg/kg, T max) stood at 3.33 ± 0.82 h. Besides, the Vd/F in data set [2] (male, Sprague-Dawley, rat, in vivo, po, 10 mg/kg, Vz/F) was 130 ± 58.1 L/kg. Further, the “Substrate of P-gp” value in the data set on P-gp is reported as “substrate”. Besides, the “Increase of exposure (AUC)” value in data set [3] (coadministered with itraconazole (strong CYP3A4 inhibitor)) is on record as 24%. Also, in data set [3] (coadministered with rifampicin (CYP3A4 inducer)), the “Decrease of exposure (AUC)” value was 78%. In data set [4] (spiked 3 ng/mL), the “Autosampler stability, RE” value was determined as 0.6% and the “Autosampler stability, measured concentration Mean ± SD” value turned out to be 3.02 ± 0.01 ng/mL. In data set [4] (spiked 30 ng/mL), the “Autosampler stability, RE” value was −4.2% and the “Autosampler stability, measured concentration Mean ± SD” value turned out to be 28.7 ± 0.8 ng/mL. Moreover, in data set [4] (spiked 350 ng/mL), the “Autosampler stability, RE” value is 2.5% and the “Autosampler stability, measured concentration Mean ± SD” value came to 359 ± 26 ng/mL. In data set [4] (rat plasma, spiked 3 ng/mL), the “Short-term stability, RE” value turned out to be 6.8%; the “Short-term stability, measured concentration Mean ± SD” value is 3.20 ± 0.14 ng/mL; the “Freeze-thawing stability, RE” value was determined as 1.0%; the “Freeze-thawing stability, measured concentration Mean ± SD” value stood at 3.03 ± 0.02 ng/mL. Also, in data set [4] (setting [6]), the “Long-term stability, RE” value was −1.5% and the “Long-term stability, measured concentration Mean ± SD” value amounted to 2.96 ± 0.24 ng/mL. In data set [4] (rat plasma, spiked 30 ng/mL), the “Short-term stability, RE” value is 0.4%; the “Short-term stability, measured concentration Mean ± SD” value is 30.1 ± 1.0 ng/mL; the “Freeze-thawing stability, RE” value is 0.4%; the “Freeze-thawing stability, measured concentration Mean ± SD” value is listed as 30.1 ± 1.0 ng/mL. Further, in data set [4] (setting [7]), the “Long-term stability, RE” value came out at 9.1% and the “Long-term stability, measured concentration Mean ± SD” value is reported as 32.7 ± 0.8 ng/mL. In addition, in data set [4] (rat plasma, spiked 350 ng/mL), the “Short-term stability, RE” value is on record as −2.7%; the “Short-term stability, measured concentration Mean ± SD” value was found to be 341 ± 3 ng/mL; the “Freeze-thawing stability, RE” value is given as −0.3%; the “Freeze-thawing stability, measured concentration Mean ± SD” value is 349 ± 6 ng/mL. Also, in data set [4] (setting [8]), the “Long-term stability, RE” value came to 2.4% and the “Long-term stability, measured concentration Mean ± SD” value turned out to be 359 ± 7 ng/mL. Besides, in data set [4] (rat plasma, three QC concentrations, room temperature 6 h, autosampler 24 h, three freeze-thaw cycles (−80°C), −80°C for 28 days, all within ±15% of nominal), the “Stability under the conditions investigated” value is “stable”. The Metabolizing enzyme result in the data set with cytochrome P450 (CYP3A) is listed as “principally metabolized by cytochrome P450 (CYP3A)”. In the data set with BCRP, the “Substrate of BCRP” value is reported as “substrate”.

On to `CC(C)=CCC[C@](C)(O)[C@H]1CC[C@]2(C)[C@@H]1[C@H](O)C[C@@H]1[C@@]3(C)CC[C@H](O[C@@H]4O[C@H](CO)[C@@H](O)[C@H](O)[C@H]4O[C@@H]4O[C@H](CO)[C@@H](O)[C@H](O)[C@H]4O)C(C)(C)[C@@H]3CC[C@]12C` [Rg3, Ginsenoside Rg3], for which the “Effect on the main pharmacokinetic parameters of osimertinib” value in data set [2] (Rg3 5 mg/kg oral for seven days, coadministered with osimertinib 10 mg/kg oral, rats) is listed as “no significant effect”.
